Drawing on patent US20220259193A1, “KCNT1 INHIBITORS AND METHODS OF USE” (Praxis Precision Medicines, Inc., priority 2019, published 2022), this text covers IC50 for 33 compounds.

Each structure is given as a SMILES string.

This assay deals with T1, KCNT1 (KNa1.1, Slack) (Homo sapiens, UniProt Q5JUK3).
T1 construct: expressed in transfected cells; host or cells: HEK-TREX (tetracycline-inducible HEK cell line)
T1 sequence (Q5JUK3 1-1230): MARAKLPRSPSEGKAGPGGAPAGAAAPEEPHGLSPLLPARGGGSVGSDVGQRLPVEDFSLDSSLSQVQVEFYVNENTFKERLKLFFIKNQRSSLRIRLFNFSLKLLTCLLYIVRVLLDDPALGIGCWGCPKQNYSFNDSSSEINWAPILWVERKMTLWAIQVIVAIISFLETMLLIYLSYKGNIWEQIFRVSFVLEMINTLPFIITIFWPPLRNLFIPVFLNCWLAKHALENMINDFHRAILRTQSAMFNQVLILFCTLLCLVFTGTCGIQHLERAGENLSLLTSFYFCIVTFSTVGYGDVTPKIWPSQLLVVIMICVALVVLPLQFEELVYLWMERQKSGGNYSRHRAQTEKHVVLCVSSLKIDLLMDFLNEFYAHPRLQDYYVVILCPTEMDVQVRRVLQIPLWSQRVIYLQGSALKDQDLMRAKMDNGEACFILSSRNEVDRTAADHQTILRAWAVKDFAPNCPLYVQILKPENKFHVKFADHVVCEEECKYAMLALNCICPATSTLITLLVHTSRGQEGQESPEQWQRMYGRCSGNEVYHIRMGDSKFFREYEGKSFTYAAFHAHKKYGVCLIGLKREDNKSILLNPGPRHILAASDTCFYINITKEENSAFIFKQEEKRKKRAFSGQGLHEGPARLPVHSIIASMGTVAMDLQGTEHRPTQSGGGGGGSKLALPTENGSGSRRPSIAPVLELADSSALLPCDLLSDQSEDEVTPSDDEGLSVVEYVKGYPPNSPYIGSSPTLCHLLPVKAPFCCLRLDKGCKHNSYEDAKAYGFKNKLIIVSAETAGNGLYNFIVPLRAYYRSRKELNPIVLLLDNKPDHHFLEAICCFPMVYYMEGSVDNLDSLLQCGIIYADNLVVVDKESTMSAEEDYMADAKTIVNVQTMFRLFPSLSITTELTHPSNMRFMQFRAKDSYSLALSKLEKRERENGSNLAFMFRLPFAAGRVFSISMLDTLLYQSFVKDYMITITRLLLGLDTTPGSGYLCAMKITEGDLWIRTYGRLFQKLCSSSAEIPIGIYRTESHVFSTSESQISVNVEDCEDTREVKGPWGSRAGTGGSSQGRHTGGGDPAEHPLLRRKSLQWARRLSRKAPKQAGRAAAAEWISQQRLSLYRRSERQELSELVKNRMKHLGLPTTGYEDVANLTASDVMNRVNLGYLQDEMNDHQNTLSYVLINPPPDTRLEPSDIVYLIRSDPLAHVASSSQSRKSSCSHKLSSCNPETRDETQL
In words: KCNT1 patch clamp assay (SyncroPatch 384PE automated patch clamp). It is filed as cell-based. The following applies: tetracycline inducible HEK-TREX cell line; perforated patch; step from −80 mV to 0 mV; room temperature; read-out: KCNT1-WT IC50. Summed up:
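Tetracycline-inducible HEK-TREX cells; perforated-patch (10 μM escin) population recordings at room temperature, holding −80 mV with 100 ms step to 0 mV.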
Background: Patch clamp records ionic current or voltage across a cell membrane.

As usually defined, the IC50 is the concentration that gives 50% inhibition. `CC(C)Oc1cc(-c2noc([C@H](C)NC(=O)c3cc(C(F)(F)F)nn3C)n2)ccn1` [Compound 201, (S)—N-(1-(3-(2-isopropoxypyridin-4-yl)-1,2,4-oxadiazol-5-yl)ethyl)-1-methyl-3-(trifluoromethyl)-1H-pyrazole-5-carboxamide]: the IC50 is at most 1000 nM.

Regarding `CC(NC(=O)c1cc(C(F)(F)F)nn1C)c1nc(-c2ccc(Cl)cc2Cl)no1` (stereo not drawn) [Compound 75], the concentration for half-maximal inhibition (IC50) was at most 1000 nM.

On to `CC[C@H](NC(=O)c1cc(C(F)(F)F)nn1C)c1nc(-c2ccnc(C3CC3)c2)no1` [Compound 248, (S)—N-(1-(3-(2-cyclopropylpyridin-4-yl)-1,2,4-oxadiazol-5-yl)propyl)-1-methyl-3-(trifluoromethyl)-1H-pyrazole-5-carboxamide], for which the IC50 was at most 1000 nM.

With `C[C@H](NC(=O)OC(C)(C)C)c1nc(-c2ccnc(OC3CC(F)(F)C3)c2)no1` [Compound 293, tert-butyl (S)-(1-(3-(2-(3,3-difluorocyclobutoxy)pyridin-4-yl)-1,2,4-oxadiazol-5-yl)ethyl)carbamate], the IC50 is at least 20000 nM.

With `CO[C@H](C)[C@@H](NC(=O)c1cc(C(F)(F)F)nn1C)c1nc(-c2cccc(F)c2)no1` [Compound 139], the IC50 is at most 1000 nM.

Consider `CCn1cc(C(=O)N[C@@H](C)c2nc(-c3cccc(F)c3)no2)c(C(F)(F)F)n1` [Compound 165], for which the IC50 was at most 1000 nM.

In the case of `COc1cc(-c2noc([C@H](C)NC(=O)OC(C)(C)C)n2)cc(C)n1` [Compound 287, tert-butyl (S)-(1-(3-(2-methoxy-6-methylpyridin-4-yl)-1,2,4-oxadiazol-5-yl)ethyl)carbamate], the concentration for half-maximal inhibition (IC50) was at most 1000 nM.

As to `C[C@H](NC(=O)c1ccnn1CC1CC1)c1nc(-c2ccnc(C3CCCC3)c2)no1` [Compound 309, (S)—N-(1-(3-(2-cyclopentylpyridin-4-yl)-1,2,4-oxadiazol-5-yl)ethyl)-1-(cyclopropylmethyl)-1H-pyrazole-5-carboxamide], the IC50 is at most 1000 nM.

As to `C[C@H](NC(=O)c1cc(C(F)(F)F)nn1C)c1nc(-c2nccc(C(F)(F)F)n2)no1` [Compound 237, (S)-1-methyl-3-(trifluoromethyl)-N-(1-(3-(4-(trifluoromethyl)pyrimidin-2-yl)-1,2,4-oxadiazol-5-yl)ethyl)-1H-pyrazole-5-carboxamide], the IC50 was at least 20000 nM.

Turning to `Cn1nc(C(F)(F)F)cc1C(=O)NCc1nc(-c2ccnc(C3CC3)c2)no1` [Compound 301, N-[[3-(2-cyclopropyl-4-pyridyl)-1,2,4-oxadiazol-5-yl]methyl]-2-methyl-5-(trifluoromethyl)pyrazole-3-carboxamide], the IC50 is at most 1000 nM.

As for `Cc1cccc(-c2noc(C(C)NC(=O)c3cc(C)nn3C(F)F)n2)c1` (stereo not drawn) [Compound 33], the half-inhibitory concentration (IC50) is at most 1000 nM.

For `Cn1nc(C(F)(F)F)cc1C(=O)N[C@H](CCS(C)(=O)=O)c1nc(-c2cccc(F)c2)no1` (single isomer, unassigned) [Compound 143], the IC50 is at least 20000 nM.

With `COCc1nn(C)cc1C(=O)N[C@@H](C)c1nc(-c2cccc(F)c2)no1` [Compound 156], the half-inhibitory concentration (IC50) is at least 20000 nM.

With `CC(C)c1cc(-c2noc([C@H](C)NC(=O)c3cc(C(F)(F)F)nn3C)n2)ccn1` [Compound 269, (S)—N-(1-(3-(2-isopropylpyridin-4-yl)-1,2,4-oxadiazol-5-yl)ethyl)-1-methyl-3-(trifluoromethyl)-1H-pyrazole-5-carboxamide], the concentration for half-maximal inhibition (IC50) is at most 1000 nM.

Consider `CC(NC(=O)c1cc(C(F)(F)F)nn1C(F)F)c1nc(-c2cccc(Cl)c2)no1` (stereo not drawn) [Compound 73], for which the IC50 is at most 1000 nM.

In the case of `Cn1nc(C(F)(F)F)cc1C(=O)NC1(c2nc(-c3cccc(F)c3)no2)CCOC1` (stereo not drawn) [Compound 149], the half-inhibitory concentration (IC50) is at most 1000 nM.

For `Cn1nc(C(F)(F)F)cc1C(=O)NC(CC(N)=O)c1nc(-c2cccc(F)c2)no1` (single isomer, unassigned) [Compound 129, N-[3-amino-1-[3-(3-fluorophenyl)-1,2,4-oxadiazol-5-yl]-3-oxo-propyl]-2-methyl-5-(trifluoromethyl)pyrazole-3-carboxamide], the concentration for half-maximal inhibition (IC50) is at least 20000 nM.

For `Cc1nn(CC(F)(F)F)cc1C(=O)N[C@@H](C)c1nc(-c2cccc(F)c2)no1` [Compound 164], the half-maximal inhibitory concentration (IC50) fell in the range of 1000 to 20000 nM.

Regarding `COC(=O)CC(NC(=O)c1cc(C(F)(F)F)nn1C)c1nc(-c2cccc(F)c2)no1` (single isomer, unassigned) [Compound 125, methyl 3-[3-(3-fluorophenyl)-1,2,4-oxadiazol-5-yl]-3-[[2-methyl-5-(trifluoromethyl)pyrazole-3-carbonyl]amino]propanoate], the half-inhibitory concentration (IC50) is at most 1000 nM.

As to `CC[C@H](NC(=O)c1cc(C(F)(F)F)nn1C(F)F)c1nc(-c2cccc(F)c2)no1` [Compound 112], the IC50 was at most 1000 nM.

On to `CC(NC(=O)c1cc(C(F)(F)F)nn1C)c1nc(-c2cccc(CC#N)c2)no1` (stereo not drawn) [Compound 178, N-(1-(3-(3-(cyanomethyl)phenyl)-1,2,4-oxadiazol-5-yl)ethyl)-1-methyl-3-(trifluoromethyl)-1H-pyrazole-5-carboxamide], for which the IC50 fell in the range of 1000 to 20000 nM.

`C[C@H](NC(=O)c1cc(C(F)(F)F)nn1CC(=O)N(C)C)c1nc(-c2ccnc(C(F)(F)F)c2)no1` [Compound 251, (S)-1-(2-(dimethylamino)-2-oxoethyl)-3-(trifluoromethyl)-N-(1-(3-(2-(trifluoromethyl)pyridin-4-yl)-1,2,4-oxadiazol-5-yl)ethyl)-1H-pyrazole-5-carboxamide]: the IC50 lay in the range of 1000 to 20000 nM.

As for `Cn1nc(C2CC2)cc1C(=O)NC(CO)c1nc(-c2cccc(F)c2)no1` (stereo not drawn) [Compound 54], the IC50 was at least 20000 nM.

Turning to `Cc1nn(C)c(C(=O)N[C@@H](C)c2nc(-c3ccnc(C(F)(F)F)c3)no2)c1C` [Compound 244], the half-inhibitory concentration (IC50) was 1000 to 20000 nM.

Regarding `CNC(=O)C[C@@H](NC(=O)c1cc(C(F)(F)F)nn1C)c1nc(-c2cccc(F)c2)no1` (single isomer, unassigned) [Compound 114], the concentration for half-maximal inhibition (IC50) is at least 20000 nM.

In the case of `CNC(=O)C[C@H](NC(=O)c1cc(C(F)(F)F)nn1C)c1nc(-c2cccc(F)c2)no1` (single isomer, unassigned) [Compound 115], the IC50 was at least 20000 nM.

For `COCc1cc(-c2noc([C@H](C)NC(=O)OC(C)(C)C)n2)ccn1` [Compound 289, tert-butyl (S)-(1-(3-(2-(methoxymethyl)pyridin-4-yl)-1,2,4-oxadiazol-5-yl)ethyl)carbamate], the IC50 was at least 20000 nM.

`Cc1nn(C(C)C)cc1C(=O)NC(C)c1nc(-c2cccc(OC(F)F)c2)no1` (stereo not drawn) [Compound 101]: the 50% inhibitory concentration (IC50) was 1000 to 20000 nM.

With `Cn1nc(C(F)(F)F)cc1C(=O)NC(CC(=O)NCCO)c1nc(-c2cccc(F)c2)no1` (single isomer, unassigned) [Compound 121], the IC50 is at least 20000 nM.

With `CO[C@@H](C)[C@H](NC(=O)c1cc(C(F)(F)F)nn1C)c1nc(-c2cccc(F)c2)no1` [Compound 142], the IC50 was 1000 to 20000 nM.

On to `CC[C@H](NC(=O)c1cc(C(F)(F)F)nn1C(F)F)c1nc(-c2ccnc(C)c2)no1` [Compound 221, (S)-1-(difluoromethyl)-N-(1-(3-(2-methylpyridin-4-yl)-1,2,4-oxadiazol-5-yl)propyl)-3-(trifluoromethyl)-1H-pyrazole-5-carboxamide], for which the 50% inhibitory concentration (IC50) was at most 1000 nM.

On to `CCOCc1cc(-c2noc([C@H](C)NC(=O)c3cc(C(F)(F)F)nn3C)n2)ccn1` [Compound 245, (S)—N-(1-(3-(2-(ethoxymethyl)pyridin-4-yl)-1,2,4-oxadiazol-5-yl)ethyl)-1-methyl-3-(trifluoromethyl)-1H-pyrazole-5-carboxamide], for which the IC50 is 1000 to 20000 nM.

Take `C[C@H](NC(=O)c1cc(C(F)(F)F)nn1Cc1ccncc1)c1nc(-c2ccnc(C(F)(F)F)c2)no1` [Compound 246, (S)-1-(pyridin-4-ylmethyl)-3-(trifluoromethyl)-N-(1-(3-(2-(trifluoromethyl)pyridin-4-yl)-1,2,4-oxadiazol-5-yl)ethyl)-1H-pyrazole-5-carboxamide]: the IC50 was at most 1000 nM.
